Columns and labels:
Type in all cases: cell-based
[1] = biological target: T1, human muscarinic M2 receptor (Homo sapiens, UniProt P08172); assay: Alphascreen Surefire phospho-ERK1/2 functional assay, M2; conditions: for EC50: read-out: pEC50 M2 (converted); for Emax: CHO, read-out: % Emax cf. ACh, M2, CHO cells stably expressing human M2; for Emax / % Emax cf. ACh, M2: Emax compared with ACh
T1 sequence (P08172 1-466): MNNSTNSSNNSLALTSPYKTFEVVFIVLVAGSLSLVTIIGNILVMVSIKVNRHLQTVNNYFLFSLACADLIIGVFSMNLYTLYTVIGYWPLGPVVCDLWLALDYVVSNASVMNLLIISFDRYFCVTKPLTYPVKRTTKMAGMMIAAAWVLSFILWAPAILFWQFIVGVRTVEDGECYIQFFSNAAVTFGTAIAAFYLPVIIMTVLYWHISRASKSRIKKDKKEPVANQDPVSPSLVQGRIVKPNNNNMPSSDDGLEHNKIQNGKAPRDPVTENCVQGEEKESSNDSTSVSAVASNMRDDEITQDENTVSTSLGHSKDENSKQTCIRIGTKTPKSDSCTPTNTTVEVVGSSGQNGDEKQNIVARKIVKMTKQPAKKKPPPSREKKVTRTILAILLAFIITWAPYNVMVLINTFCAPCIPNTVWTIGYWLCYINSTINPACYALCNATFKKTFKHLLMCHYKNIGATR
Protocol: (§1) ERK1/2 phosphorylation is a downstream consequence of both Gq/11 and Gi/o protein coupled receptor activation, making it highly suitable for the assessment of M1, M3 (Gq/11 coupled) and M2, M4 receptors (Gi/o coupled), rather than using different assay formats for different receptor subtypes. CHO cells stably expressing the human muscarinic M1, M2, M3 or M4 receptor were plated (25K/well) onto 96-well tissue culture plates in MEM-alpha+10% dialysed FBS. Once adhered, cells were serum-starved overnight. Agonist stimulation was performed by the addition of 5 μL agonist to the cells for 5 min (37° C.). Media was removed and 50 μL of lysis buffer added. After 15 min, a 4 μL sample was transferred to 384-well plate and 7 μL of detection mixture added. Plates were incubated for 2 h with gentle agitation in the dark and then read on a PHERAstar plate reader.
(§2) pEC50 and Emax figures were calculated from the resulting data for each receptor subtype.

[2] = biological target: T2, human muscarinic M1 receptor (Homo sapiens, UniProt P11229); assay: Alphascreen Surefire phospho-ERK1/2 functional assay, M1; conditions: for % Emax cf. ACh, M1 / EC50: CHO cells stably expressing human M1; for % Emax cf. ACh, M1 / Emax: Emax compared with ACh; for EC50: agonist 5 min, 37° C., read-out: pEC50 M1 (converted); for Emax: CHO, read-out: % Emax cf. ACh, M1, CHO cells stably expressing human M1
T2 sequence (P11229 1-460): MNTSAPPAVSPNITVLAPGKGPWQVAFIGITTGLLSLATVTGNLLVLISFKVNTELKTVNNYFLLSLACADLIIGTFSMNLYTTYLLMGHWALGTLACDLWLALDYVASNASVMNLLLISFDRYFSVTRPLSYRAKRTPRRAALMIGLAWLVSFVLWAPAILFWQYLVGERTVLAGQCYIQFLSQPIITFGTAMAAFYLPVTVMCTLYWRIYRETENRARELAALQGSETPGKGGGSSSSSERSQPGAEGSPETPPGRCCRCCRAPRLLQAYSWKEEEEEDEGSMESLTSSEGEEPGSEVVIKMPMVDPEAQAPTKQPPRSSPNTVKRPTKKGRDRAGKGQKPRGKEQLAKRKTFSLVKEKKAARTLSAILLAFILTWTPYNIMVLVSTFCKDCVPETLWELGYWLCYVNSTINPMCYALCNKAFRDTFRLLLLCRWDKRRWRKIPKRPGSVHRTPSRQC
Protocol: as §1, §2

[3] = biological target: T3, human muscarinic M4 receptor (Homo sapiens, UniProt P08173); assay: Alphascreen Surefire phospho-ERK1/2 functional assay, M4; conditions: for % Emax cf. ACh, M4 / Emax: Emax compared with ACh; for EC50: read-out: pEC50 M4 (converted); for Emax: CHO, read-out: % Emax cf. ACh, M4, CHO cells stably expressing human M4
T3 construct: expressed in transfected cells
T3 sequence (P08173 1-479): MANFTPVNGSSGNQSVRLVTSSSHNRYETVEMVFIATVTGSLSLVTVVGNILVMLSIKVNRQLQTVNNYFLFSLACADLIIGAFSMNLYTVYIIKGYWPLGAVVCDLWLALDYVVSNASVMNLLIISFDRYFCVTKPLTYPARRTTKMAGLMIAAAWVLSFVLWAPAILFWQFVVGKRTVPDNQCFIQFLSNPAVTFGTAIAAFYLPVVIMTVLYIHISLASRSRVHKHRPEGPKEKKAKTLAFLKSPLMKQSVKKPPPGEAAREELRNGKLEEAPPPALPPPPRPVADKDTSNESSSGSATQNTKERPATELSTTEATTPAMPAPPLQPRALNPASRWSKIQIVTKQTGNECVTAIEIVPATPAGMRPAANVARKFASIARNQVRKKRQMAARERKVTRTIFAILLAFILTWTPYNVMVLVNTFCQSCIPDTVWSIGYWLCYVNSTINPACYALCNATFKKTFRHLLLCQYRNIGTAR
Protocol: as §1, §2

[4] = biological target: T4, human muscarinic M3 receptor (Homo sapiens, UniProt P20309); assay: Alphascreen Surefire phospho-ERK1/2 functional assay, M3; conditions: for EC50: read-out: pEC50 M3 (converted); for Emax: CHO, read-out: % Emax cf. ACh, M3, CHO cells stably expressing human M3
T4 construct: expressed in transfected cells
Protocol: as §1, §2

[5] = CHO cells stably expressing human M2, agonist 5 min, 37° C.
[6] = CHO cells stably expressing human M4
[7] = CHO cells stably expressing human M4, agonist 5 min, 37° C.
[8] = CHO cells stably expressing human M3, agonist 5 min, 37° C.
[9] = CHO cells stably expressing human M2

T4 sequence (P20309 whole entry): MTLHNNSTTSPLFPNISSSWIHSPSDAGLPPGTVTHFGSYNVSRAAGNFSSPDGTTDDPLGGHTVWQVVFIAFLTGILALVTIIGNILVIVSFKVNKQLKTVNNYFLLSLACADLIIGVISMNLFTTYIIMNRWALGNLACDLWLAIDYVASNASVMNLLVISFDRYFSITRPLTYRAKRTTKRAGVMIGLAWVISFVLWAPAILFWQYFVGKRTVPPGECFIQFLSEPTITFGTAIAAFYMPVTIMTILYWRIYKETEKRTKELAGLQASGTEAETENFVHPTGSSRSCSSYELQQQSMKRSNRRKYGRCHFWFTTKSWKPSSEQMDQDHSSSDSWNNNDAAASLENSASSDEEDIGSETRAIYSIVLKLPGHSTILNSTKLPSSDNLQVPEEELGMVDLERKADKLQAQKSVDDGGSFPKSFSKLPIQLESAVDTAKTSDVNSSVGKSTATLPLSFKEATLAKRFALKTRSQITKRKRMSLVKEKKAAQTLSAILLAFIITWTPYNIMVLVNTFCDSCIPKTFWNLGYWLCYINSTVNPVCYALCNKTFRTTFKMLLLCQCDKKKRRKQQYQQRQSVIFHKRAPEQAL

CCCC(=NOC)C1CCN(C2CCCN(C(=O)OCC)CC2)CC1 (single isomer, unassigned) [1-3 Isomer 2 (racemic)]
EC50 [1, 5]: > 20000 nM | Emax [1]: 21% | % Emax cf. ACh, M1 [2]: 92% | EC50 [2]: 63.1 nM | % Emax cf. ACh, M4 [3, 6]: 83% | EC50 [3, 7]: 50.1 nM | EC50 [4, 8]: > 20000 nM | Emax ([4]; Emax compared with ACh): 17%

CCOC(=O)N1CCC2(CC(N3CCC(C(C)=NOC)CC3)C2)C1 (single isomer, unassigned) [2-1 Mixture of isomers 2]
EC50 [1, 5]: > 20000 nM | Emax [1]: 71% | EC50 [2]: 200 nM | Emax [2]: 89% | EC50 [3, 7]: 63.1 nM | Emax [3]: 68% | EC50 [4, 8]: > 20000 nM | Emax ([4]; Emax compared with ACh): 9%

CCCC(=NOC)C1CCN([C@H]2CCCN(C(=O)OCC)CC2)CC1 (single isomer, unassigned) [(S)-1-3 Isomer 2]
EC50 [1, 5]: > 20000 nM | Emax [1]: 7% | EC50 [2]: 251 nM | Emax [2]: 93% | EC50 [3, 7]: 25.1 nM | Emax [3]: 126% | EC50 [4, 8]: > 20000 nM | Emax ([4]; Emax compared with ACh): 0%

CCCON=C(CC)C1CCN(C2CCCN(C(=O)OCC)CC2)CC1 (single isomer, unassigned) [1-11 Isomer 2 (racemic)]
EC50 [1, 5]: > 20000 nM | Emax [1]: 19% | % Emax cf. ACh, M1 [2]: 99% | EC50 [2]: 158 nM | % Emax cf. ACh, M4 [3, 6]: 97% | EC50 [3, 7]: 63.1 nM | EC50 [4, 8]: > 20000 nM | Emax ([4]; Emax compared with ACh): 6%

CCOC(=O)N1CCCC(N2CCC(C(CC)=NOC)CC2)CC1 (single isomer, unassigned) [1-2 Isomer 2 (racemic)]
% Emax cf. ACh, M2 [1, 9]: 7% | pEC50 M2 [1, 5]: < 4.7 | % Emax cf. ACh, M1 [2]: 83% | EC50 [2]: 398 nM | % Emax cf. ACh, M4 [3, 6]: 94% | EC50 [3, 7]: 25.1 nM | % Emax cf. ACh, M3 ([4]; CHO cells stably expressing human M3, Emax compared with ACh): 1% | pEC50 M3 [4, 8]: < 4.7

CCOC(=O)N1CCC[C@H](N2CCC(C(C)=NOC)CC2)CC1 (single isomer, unassigned) [(S)-1-1 Isomer 2]
EC50 [1, 5]: > 20000 nM | Emax [1]: 7% | % Emax cf. ACh, M1 [2]: 49% | EC50 [2]: 501 nM | % Emax cf. ACh, M4 [3, 6]: 62% | pEC50 M4 [3, 7]: 6.7 | EC50 [4, 8]: > 20000 nM | Emax ([4]; Emax compared with ACh): 0%

CCOC(=O)N1CCCC(N2CCC(C(C#N)=NOC(C)C)CC2)CC1 (mixture of isomers) [4-1 Mixture of isomers]
EC50 [1, 5]: > 20000 nM | Emax [1]: 4% | EC50 [2]: 100 nM | Emax [2]: 109% | EC50 [3, 7]: 79.4 nM | Emax [3]: 72% | EC50 [4, 8]: > 20000 nM | Emax ([4]; Emax compared with ACh): 5%

CCOC(=O)N1CCCC(N2CCC(C(C)=NOC)CC2)CC1 (single isomer, unassigned) [1-1 Isomer 2 (racemic)]
EC50 [1, 5]: > 20000 nM | Emax [1]: 4% | EC50 [2]: 1580 nM | Emax [2]: 54% | EC50 [3, 7]: 126 nM | Emax [3]: 71% | EC50 [4, 8]: > 20000 nM | Emax ([4]; Emax compared with ACh): 1%

CCCC(=NOC)C1CCN(C2CC3(CCN(C(=O)OCC)C3)C2)CC1 (single isomer, unassigned) [2-3 Isomer 4]
EC50 [1, 5]: > 20000 nM | Emax [1]: 15% | EC50 [2]: 158 nM | Emax [2]: 87% | EC50 [3, 7]: 25.1 nM | Emax [3]: 77% | EC50 [4, 8]: > 20000 nM | Emax ([4]; Emax compared with ACh): 7%

CCOC(=O)N1CCCC(N2CCC(C(=NOC)C(C)C)CC2)CC1 (single isomer, unassigned) [1-4 Isomer 1 (racemic)]
% Emax cf. ACh, M2 [1, 9]: 24% | EC50 [1, 5]: > 20000 nM | EC50 [2]: 398 nM | Emax [2]: 87% | EC50 [3, 7]: 50.1 nM | Emax [3]: 115% | EC50 [4, 8]: > 20000 nM | Emax ([4]; Emax compared with ACh): 5%

CCOC(=O)N1CCCC(N2CCC(C(CCC(C)C)=NOC)CC2)CC1 (single isomer, unassigned) [1-6 Isomer 2 (racemic)]
EC50 [1, 5]: > 20000 nM | Emax [1]: 10% | EC50 [2]: 39.8 nM | Emax [2]: 96% | EC50 [3, 7]: 126 nM | Emax [3]: 65% | EC50 [4, 8]: > 20000 nM | Emax ([4]; Emax compared with ACh): 16%

Reference: patent US11208396B2, “Oxime compounds as agonists of the muscarinic M1 and/or M4 receptor” (Heptares Therapeutics Limited, priority 2015, dated 2021)
